Like-named read-outs stand apart in the source and are kept apart here.
Columns and labels:
[1] = Relaxivity in aqueous solution; type: physicochemical; details: for Relaxivity r1, aqueous solution: 0.15 M NaCl aqueous solution, 20 MHz, 39° C.; for Relaxivity r1 5 MHz, aqueous solution / Relaxivity r1 10 MHz, aqueous solution: same experimental conditions as Table 1
Description: (§1) The relaxivity of the compounds of the invention was measured both in saline solution and in human serum, reconstituted from Seronorm^(R) Human (Nycomed Pharma), lyophilized human serum, and the resulting data are summarized in TABLES 1 and 2.
(§2) TABLE 1 reports the relativity values measured for some compounds of the invention at 20 MHz; the other experimental conditions used are detailed following the table itself.
(§3) TABLE 2 comprises the results obtained from tests carried out under the same experimental conditions as above and in which r1 and r2 relaxivities were measured in serum and in aqueous solution at lower fields, precisely at 5 and 10 MHz. Said data evidence the significant increase in relaxivity obtained in serum already at 5 MHz and are indicative of the potential advantageous use of the compounds of the invention in M.R.I. diagnostic imaging at low fields.

[2] = Relaxivity in human serum reconstituted from Seronorm Human; type: physicochemical; details: for Relaxivity r1 5 MHz, Seronorm / Relaxivity r1 10 MHz, Seronorm: same experimental conditions as Table 1; for Relaxivity r1, Seronorm Human: calculated between 0 and 1 mM, 20 MHz, 39° C.
Description: as §1, §2, §3

[3] = 40° C.; 20 MHz; aqueous solution containing 20 mol % calcium ascorbate and 3 eq. of Na^+; cited from earlier work
[4] = biodistribution study; Investigative Radiology 1994, 29(2), S249-S250; cited from earlier work
[5] = in the presence of calcium and magnesium ions; MRM 1996, 35, 14-19; cited from earlier work

Structure (SMILES) | Relaxivity r1, aqueous solution ([1]; pH 7.3) | Relaxivity r1 5 MHz, aqueous solution [1] | Relaxivity r1 10 MHz, aqueous solution [1] | Relaxivity r1 5 MHz, Seronorm [2] | Relaxivity r1 10 MHz, Seronorm [2] | Relaxivity r1, Seronorm Human [2] | Relaxivity r1, aqueous solution [3] | Stability of the complex in vivo [4] | Stability of the complex in liver homogenate [5] | Relaxivity r1, aqueous solution ([1]; pH 4) | Relaxivity r1, Seronorm Human ([2]; pH 7.0)
C[NH2+]C[C@H](O)[C@@H](O)[C@H](O)[C@H](O)CO.C[NH2+]C[C@H](O)[C@@H](O)[C@H](O)[C@H](O)CO.O=C([O-])CN(CCN(CC(=O)[O-])[C@H](Cc1ccccc1)C(=O)[O-])CC(=O)[O-].[Mn+2] [Example 1, Manganese complex of N-[2-[bis(carboxymethyl)-amino]ethyl]-N-(carboxymethyl)-D-phenylalanine salified with 1-deoxy-1-(methylamino)-D-glucitol (1:2)] | 2.93^6) mM^−1 s^−1 | 4.3 mM⁻¹ s⁻¹ | 3.7 mM⁻¹ s⁻¹ | 11.8 mM⁻¹ s⁻¹ | 12.8 mM⁻¹ s⁻¹ | 15^(7) mM^−1 s^−1 | – | – | – | – | –
Cc1ncc(COP(=O)(O)O)c(CN(CCN(CC(=O)[O-])Cc2c(COP(=O)(O)O)cnc(C)c2O)CC(=O)[O-])c1O.[Mn+2].[Na].[Na].[Na] [Mn-DPDP] | – | – | – | – | – | – | 2.8^(5) L.mmol^−1.s^−1 | this complex dissociates, releasing manganese which accumulates in liver, pancreas and kidneys | dissociation | – | –
[Cl][Mn][Cl] [MnCl2, reference compound] | – | – | – | – | – | – | – | – | – | 6.59^(2) mM^−1 s^−1 | 53^(3) mM^−1 s^−1
C[NH2+]C[C@H](O)[C@@H](O)[C@H](O)[C@H](O)CO.C[NH2+]C[C@H](O)[C@@H](O)[C@H](O)[C@H](O)CO.O=C([O-])CN(CCN(CC(=O)[O-])[C@@H](Cc1ccccc1)C(=O)[O-])[C@@H](Cc1ccccc1)C(=O)[O-].[Mn+2] [Example 2, Manganese complex of [N,N′-1,2-ethanediylbis [N-(carboxymethyl)-L-phenylalanine]] salified with 1-deoxy-1-(methylamino)-D-glucitol (1:2)] | 3.15^(6) mM^−1 s^−1 | 4.5 mM⁻¹ s⁻¹ | 3.9 mM⁻¹ s⁻¹ | 19.9 mM⁻¹ s⁻¹ | 26.1 mM⁻¹ s⁻¹ | 27^(7) mM^−1 s^−1 | – | – | – | – | –

From patent US6337064B1, “Manganese chelates with high relaxivity in serum” (Dibra S.p.A., priority 1998, dated 2002)
